{
  "source": "patent US8455469B2",
  "about": "“Use of norgestimate as a selective inhibitor of TRPC3, TRPC6 and TRPC7 ion channels” (Sanofi, priority 2007, dated 2013)",
  "target": "T1, TRPC5 (Homo sapiens, UniProt Q9UL62)",
  "T1 construct": "expressed in transfected cells; host or cells: HEK293 FITR (inducible expression)",
  "T1 sequence (Q9UL62 1-973)": "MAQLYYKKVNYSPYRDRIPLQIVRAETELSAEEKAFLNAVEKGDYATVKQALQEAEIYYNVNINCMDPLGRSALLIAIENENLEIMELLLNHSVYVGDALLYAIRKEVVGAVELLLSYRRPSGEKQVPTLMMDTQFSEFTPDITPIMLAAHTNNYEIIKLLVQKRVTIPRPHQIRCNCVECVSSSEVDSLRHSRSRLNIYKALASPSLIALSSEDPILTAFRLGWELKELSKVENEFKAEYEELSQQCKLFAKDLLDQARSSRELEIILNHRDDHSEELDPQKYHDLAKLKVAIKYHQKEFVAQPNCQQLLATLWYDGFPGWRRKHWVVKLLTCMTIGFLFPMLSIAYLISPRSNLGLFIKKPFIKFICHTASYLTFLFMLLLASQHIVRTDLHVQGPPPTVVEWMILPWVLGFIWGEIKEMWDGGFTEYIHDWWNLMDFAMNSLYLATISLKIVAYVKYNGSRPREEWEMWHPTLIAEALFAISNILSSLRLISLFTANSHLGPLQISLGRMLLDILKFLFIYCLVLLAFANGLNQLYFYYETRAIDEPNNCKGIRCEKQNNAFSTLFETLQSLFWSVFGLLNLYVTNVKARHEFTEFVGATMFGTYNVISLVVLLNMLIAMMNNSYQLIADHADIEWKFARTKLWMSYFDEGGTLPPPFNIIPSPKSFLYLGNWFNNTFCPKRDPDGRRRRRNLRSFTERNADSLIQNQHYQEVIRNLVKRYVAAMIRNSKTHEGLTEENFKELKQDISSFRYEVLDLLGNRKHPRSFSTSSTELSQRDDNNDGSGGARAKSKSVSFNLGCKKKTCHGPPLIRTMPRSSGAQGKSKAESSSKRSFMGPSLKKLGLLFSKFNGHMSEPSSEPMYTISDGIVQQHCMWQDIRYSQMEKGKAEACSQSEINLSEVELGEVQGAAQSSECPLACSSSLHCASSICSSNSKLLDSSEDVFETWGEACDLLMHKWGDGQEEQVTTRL",
  "experiment": "FLIPR Ca2+ influx measurement, trypsin-stimulated TRPC5 HEK293 cells",
  "assay_type": "cell-based",
  "details": "200 nM trypsin",
  "text": "In general, cells are provided which express a TRPC channel. Such cells can be produced using genetic methods known to a person skilled in the art. After having induced the expression of the TRPC channel, cells are usually plated into e.g. microtiter plates and grown. Usually the cells grow at the bottom of multiwell plates and are fixed. Thereafter, the cells are generally washed and loaded with a dye in a suitable loading buffer, preferably with a fluorescent dye such as fluo4am. After having removed the loading buffer, the cells are incubated with the test compound or modulator, in particular with a biochemical or chemical test compound as described above, e.g. in the form of a chemical compound library. Ca^2+ measurements can be carried out using e.g. a Fluorescence Imaging Plate Reader (FLIPR). To stimulate Ca^2+ influx through the TRPC channel a channel activator such as OAG should generally be applied.\nWhen these experiments were performed, no direct physiological stimuli of TRPC4 and TRPC5 were known. Therefore, both channels had to be stimulated indirectly, e.g. by application of trypsin, a protease-activated receptor (PAR) stimulating protease. […] Kinetics and quantity of calcium store release in cells treated with 30 μM norgestimate were not changed compared to untreated cells. […]",
  "note": "Entries after “also recorded” stand apart in the source; their conditions may differ.",
  "data": [
    {"smiles": "C#C[C@]1(OC(C)=O)CC[C@H]2[C@@H]3CCC4=C/C(=N/O)CC[C@@H]4[C@H]3CC[C@@]21CC", "note": "[norgestimate, D-17β-acetoxy-B-ethyl-17α ethinyl-gon-4-en-3-one oxime]", "values": [
      {"measurement": "inhibitory effect on TRPC5-mediated Ca2+ influx", "setting": "30 μM norgestimate", "result": "only small inhibitory effects; also recorded: slightly reduced"},
      {"measurement": "IC50", "setting": "FLIPR, n=4", "result": "> 30", "unit": "µM"}
    ]}
  ]
}
